{
  "source": "paper PMC11237612",
  "about": "“Mutation of the peptide-regulated transcription factor ComR for amidated peptide specificity and heterologous function in Lactiplantibacillus plantarum WCFS1” (Microbiology Spectrum, 2024)",
  "tested_on": "S. thermophilus ComR containing five mutations (R92G, V205A, S248G, S289K, and I290T)",
  "assay": "GFP signal in E. coli expressing five-mutation ComR",
  "assay_type": "cell-based",
  "conditions": "100 µM peptide, GFP signal (Fig. S3)",
  "source_text": "The selection of mutant ComRs with altered specificity highlighted the utility of the screening system built in E. coli. We attempted to further validate this screening system by cloning a version of S. thermophilus ComR containing five mutations (R92G, V205A, S248G, S289K, and I290T), which was reported to have altered specificity for the 8 amino-acid long XIP from S. vestibularis (VPFFMIYY) ([20]).\nComR sensor circuits were constructed on plasmid pACYC184 (American Type Culture Collection #37033) such that ComR activation promoted GFP expression. This was done by assembling synthetic dsDNA fragments (Integrated DNA Technology) using NEBuilder® HiFi DNA Assembly Master Mix (NEB, E2621S). The full sequence of plasmid pAC-J23107*-ComR, on which the ComR mutant library was made is included in supplemental materials. The ComR mutant (K100NNK) library was created by PCR amplifying all but the K100 codon and then assembling it with degenerate oligos (Integrated DNA Technology) using NEBuilder® HiFi DNA Assembly Master Mix (NEB, E2621S). […] Bacteria were incubated in a large radius shaker (Eppendorf S441) at 37°C for 9 hours, then GFP fluorescence was read using a TECAN Spark 20M plate reader. […]",
  "data": [
    {"sequence": "VPFFMIYY [S. vestibularis XIP, 8 amino-acid long XIP from S. vestibularis (VPFFMIYY)]", "values": [
      {"measurement": "GFP signal of five-mutation ComR with S. vestibularis XIP", "result": "only a slight increase in GFP signal"}
    ]}
  ]
}
